From the CheMixHub ionic liquid set
“And” between values parts separate entries of the source, which are not always exact repeats. Equal values may be shown once.

Experiment: xn = mol fraction of the nth substance listed
Conditions: 100 kPa

OC[C@H]1O[C@@H](O[C@H]2[C@H](O)[C@@H](O)[C@@H](O)O[C@@H]2CO)[C@H](O)[C@@H](O)[C@H]1O + CCCC[N+](C)(CCCC)CCCC.[Cl-] + O
viscosity
Conditions	293.15 K	298.15 K	303.15 K	308.15 K	313.15 K
x1 = 0.0003513, x2 = 0	1.018 mPa·s	0.904 mPa·s	0.804 mPa·s	0.725 mPa·s	0.658 mPa·s
x1 = 0.0003543, x2 = 0.000702	1.043 mPa·s	0.929 mPa·s	0.828 mPa·s	0.745 mPa·s	0.679 mPa·s
x1 = 0.0003546, x2 = 0.0003601	1.027 mPa·s	0.917 mPa·s	0.819 mPa·s	0.735 mPa·s	0.667 mPa·s
x1 = 0.0003558, x2 = 0.001062	1.057 mPa·s	0.948 mPa·s	0.843 mPa·s	0.757 mPa·s	0.696 mPa·s
x1 = 0.0003573, x2 = 0.001421	1.069 mPa·s	0.961 mPa·s	0.856 mPa·s	0.77 mPa·s	0.706 mPa·s
x1 = 0.0007059, x2 = 0	1.038 mPa·s	0.919 mPa·s	0.812 mPa·s	0.731 mPa·s	0.662 mPa·s
x1 = 0.000709, x2 = 0.00036	1.049 mPa·s	0.937 mPa·s	0.834 mPa·s	0.747 mPa·s	0.673 mPa·s
x1 = 0.0007119, x2 = 0.0007018	1.067 mPa·s	0.948 mPa·s	0.843 mPa·s	0.758 mPa·s	0.689 mPa·s
x1 = 0.0007149, x2 = 0.001061	1.081 mPa·s	0.969 mPa·s	0.86 mPa·s	0.771 mPa·s	0.708 mPa·s
x1 = 0.000718, x2 = 0.001421	1.094 mPa·s	0.984 mPa·s	0.876 mPa·s	0.785 mPa·s	0.72 mPa·s
x1 = 0.001058, x2 = 0	1.059 mPa·s	0.936 mPa·s	0.827 mPa·s	0.741 mPa·s	0.671 mPa·s
x1 = 0.001063, x2 = 0.0003599	1.07 mPa·s	0.952 mPa·s	0.848 mPa·s	0.758 mPa·s	0.681 mPa·s
x1 = 0.001067, x2 = 0.0007015	1.088 mPa·s	0.966 mPa·s	0.857 mPa·s	0.77 mPa·s	0.698 mPa·s
x1 = 0.001072, x2 = 0.001061	1.106 mPa·s	0.989 mPa·s	0.877 mPa·s	0.785 mPa·s	0.72 mPa·s
x1 = 0.001077, x2 = 0.00142	1.118 mPa·s	1.003 mPa·s	0.891 mPa·s	0.799 mPa·s	0.733 mPa·s
x1 = 0.001413, x2 = 0	1.079 mPa·s	0.955 mPa·s	0.843 mPa·s	0.752 mPa·s	0.68 mPa·s
x1 = 0.001419, x2 = 0.0003598	1.093 mPa·s	0.971 mPa·s	0.86 mPa·s	0.77 mPa·s	0.694 mPa·s
x1 = 0.001425, x2 = 0.0007013	1.11 mPa·s	0.986 mPa·s	0.872 mPa·s	0.784 mPa·s	0.709 mPa·s
x1 = 0.001431, x2 = 0.001061	1.127 mPa·s	1.006 mPa·s	0.893 mPa·s	0.8 mPa·s	0.734 mPa·s
x1 = 0.001437, x2 = 0.00142	–	1.14 mPa·s	1.02 mPa·s	0.909 mPa·s	0.747 mPa·s and 0.816 mPa·s
x1 = 0.001765, x2 = 0	1.097 mPa·s	0.971 mPa·s	0.858 mPa·s	0.764 mPa·s	0.689 mPa·s
x1 = 0.001774, x2 = 0.0003596	1.118 mPa·s	0.987 mPa·s	0.879 mPa·s	0.783 mPa·s	0.705 mPa·s
x1 = 0.00178, x2 = 0.000701	1.133 mPa·s	1.003 mPa·s	0.889 mPa·s	0.797 mPa·s	0.719 mPa·s
x1 = 0.001787, x2 = 0.00106	1.15 mPa·s	1.024 mPa·s	0.909 mPa·s	0.814 mPa·s	0.745 mPa·s
x1 = 0.001795, x2 = 0.001419	–	1.164 mPa·s	1.038 mPa·s	0.923 mPa·s	0.76 mPa·s and 0.829 mPa·s

CCCC[n+]1ccn(C)c1.O=[N+]([O-])[O-] + CCCC(C)O
Conditions	viscosity [mPa·s]
293.15 K, x1 = 0.8501	83
303.15 K, x1 = 0.3499	6.6
318.15 K, x1 = 0.4399	5.9
323.15 K, x1 = 0.5604	7.1
323.15 K, x1 = 0.6505	9.7

CCCC[n+]1ccn(C)c1C.F[B-](F)(F)F + CC[N+](C)(CC)CCOC.F[B-](F)(F)F
x2 = 0
Conditions	electrical conductivity [S/m]
333.15 K	0.335
338.15 K	0.447
343.15 K	0.53
348.15 K	0.63
